Measured values as given in article PMC4770093, “The role of kinetic context in apparent biased agonism at GPCRs” (Nature Communications, 2016).
“And” between values parts separate entries of the source, which are not always exact repeats. Identical values can stand only once.

Legend:
D2LR [1] = target: T1, D2LR (Homo sapiens, UniProt P14416); assay: β-Arrestin-2 recruitment (BRET); format: cell-based; set-up: expressed in transfected cells; conditions: 5 minute timepoint
Protocol: β-Arrestin-2 recruitment. […] To assess β-arrestin-2 recruitment to the D2LR, the cells were transfected with 1 μg Rluc8-tagged D2LR, 4 μg YFP–β-arrestin-2 and 2 μg GRK2. […] The cells were incubated with Coelenterazine (Promega) at a final concentration of 5 μM for 5 min, followed by stimulation with the agonists for an additional 5 min before the BRET readings were captured.

D2LR [2] = target: T1, D2LR; assay: xCELLigence cellular impedance (CI) assay; format: cell-based; set-up: expressed in transfected cells; conditions: for Emax: relative to the maximal response of ropinirole
Protocol: Changes in CI on ligand stimulation were measured using the xCELLigence system (Roche Applied Science). The baseline cell index of each well of a 96-well E-plate was measured in the presence of growth medium before cell seeding. Cells were seeded at a density of 20,000 cells per well and grown for 16–20 h followed by 4 h serum starvation. Cells were treated with the ligands and the cell index values were obtained immediately after ligand stimulation every 15 s for a total time of 90 min. The retrieved cell index values were then normalized by dividing the cell index at the time of ligand addition followed by subtraction of the vehicle control at each time point.

D2LR [3] = target: T1, D2LR; assay: Inhibition of forskolin-induced cAMP production (BRET CAMYEL biosensor); conditions: for EC50: pEC50 cAMP; for Emax: relative to the maximal response of ropinirole; for Inhibition of cAMP production measured using a CAMYEL BRET biosensor, Net BRET: single experiments n = 1, 2, 3
Protocol: Flp-In-CHO cells stably expressing the D2LR were seeded at a density of 2,000,000 cells per 10-cm dish and were transfected the following day using polyethylenimine as the transfection reagent. The cells were transfected with 3 μg CAMYEL, to allow the detection of cAMP levels within the cells. Twenty-four hours after transfection, the cells were plated into 96-well CulturPlates (PerkinElmer) and grown overnight. The cells were equilibrated in Hank's balanced salt solution at 37 °C (or 25 °C when indicated) before starting the experiment. The cells were co-stimulated with the agonists and 10 μM forskolin for the indicated timeframes when the BRET readings were captured. Coelenterazine (Promega) was added at a final concentration of 5 μM at least 3 min before measurement. […] Net BRET was determined by subtraction of the vehicle control co-added with 10 μM forskolin.

[4] = 5 minute timepoint, Flp-In-CHO-D2LR
[5] = 5 minute timepoint, dopamine as reference agonist

T1 sequence (P14416 whole entry): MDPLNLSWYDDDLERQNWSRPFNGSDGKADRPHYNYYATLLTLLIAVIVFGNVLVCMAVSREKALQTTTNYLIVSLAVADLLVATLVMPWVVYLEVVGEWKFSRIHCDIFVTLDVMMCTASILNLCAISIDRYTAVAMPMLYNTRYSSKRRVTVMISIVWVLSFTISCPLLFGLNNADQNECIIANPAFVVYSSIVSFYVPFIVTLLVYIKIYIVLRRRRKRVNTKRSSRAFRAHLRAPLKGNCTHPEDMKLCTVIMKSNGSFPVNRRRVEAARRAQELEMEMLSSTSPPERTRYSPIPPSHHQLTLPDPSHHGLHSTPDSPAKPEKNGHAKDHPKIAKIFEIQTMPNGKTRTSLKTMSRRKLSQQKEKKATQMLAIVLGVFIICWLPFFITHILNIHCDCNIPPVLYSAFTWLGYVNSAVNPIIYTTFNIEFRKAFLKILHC

O=c1[nH]c2cccc(N3CCN(Cc4cccc(-c5ccccc5)c4)CC3)c2o1 [Bifeprunox, bifeprunox]
Log(τ/KA) β-arrestin2 (D2LR [1]; ND = no agonist activity detected): 5.75 ± 0.16 | ΔLog(τ/KA) β-arrestin2 (D2LR [1]; dopamine as reference agonist): -0.58 ± 0.21 | EC50 (D2LR [2]; 2 min): 16.2 nM | Emax (D2LR [2]; 2 min): 61 ± 4% | EC50 (D2LR [2]; 5 min): 3.47 nM | Emax (D2LR [2]; 5 min): 67 ± 3% | Log(τ/KA) Cellular impedance (D2LR [2]; [4]): 8.30 ± 0.07 | ΔLog(τ/KA) Cellular impedance (D2LR [2]; [5]): -0.25 ± 0.08 | EC50 (D2LR [2]; 10 min): 1.58 nM | Emax (D2LR [2]; 10 min): 57 ± 2.5% | EC50 (D2LR [2]; 15 min): 0.912 nM | Emax (D2LR [2]; 15 min): 58 ± 2.8% | EC50 (D2LR [2]; 30 min): 0.55 nM | Emax (D2LR [2]; 30 min): 53 ± 3.1% | EC50 (D2LR [2]; 45 min): 0.339 nM | Emax (D2LR [2]; 45 min): 51 ± 2.3% | EC50 (D2LR [2]; 60 min): 0.263 nM | Emax (D2LR [2]; 60 min): 49% | EC50 (D2LR [2]; 75 min): 0.229 nM | Emax (D2LR [2]; 75 min): 46% | EC50 (D2LR [2]; 90 min): 0.2 nM | Emax (D2LR [2]; 90 min): 44% | Log(τ/KA) cAMP (D2LR [3]; [4]): 7.88 ± 0.05 | ΔLog(τ/KA) cAMP (D2LR [3]; [5]): -0.18 ± 0.07 | EC50 (D2LR [3]; 2 min): 25.1 nM | EC50 (D2LR [3]; 5 min): 12.3 nM | EC50 (D2LR [3]; 10 min): 7.41 nM | EC50 (D2LR [3]; 15 min): 5.37 nM | EC50 (D2LR [3]; 30 min): 2.4 nM | EC50 (D2LR [3]; 45 min): 2.75 nM | EC50 (D2LR [3]; 60 min): 3.09 nM | EC50 (D2LR [3]; 75 min): 1.58 nM | EC50 (D2LR [3]; 90 min): 2.04 nM | Emax (D2LR [3]; read-out: Emax cAMP, 2 min): 89 ± 2% | Emax (D2LR [3]; read-out: Emax cAMP, 5 min): 92 ± 2% | Emax (D2LR [3]; read-out: Emax cAMP, 10 min): 91 ± 2% | Emax (D2LR [3]; read-out: Emax cAMP, 15 min): 89 ± 2.4% | Emax (D2LR [3]; read-out: Emax cAMP, 30 min): 89 ± 1.7% | Emax (D2LR [3]; read-out: Emax cAMP, 45 min): 88 ± 2% | Emax (D2LR [3]; read-out: Emax cAMP, 60 min): 81 ± 2% | Emax (D2LR [3]; read-out: Emax cAMP, 75 min): 90 ± 2.5% | Emax (D2LR [3]; read-out: Emax cAMP, 90 min): 88 ± 2.5% | Inhibition of cAMP production measured using a CAMYEL BRET biosensor, Net BRET (D2LR [3]; time 2.21667 mins): 0.08914 and 0.1211 and 0.09318 | Inhibition of cAMP production measured using a CAMYEL BRET biosensor, Net BRET (D2LR [3]; time 2.58333 mins): 0.103 and 0.1317 and 0.09421 | Inhibition of cAMP production measured using a CAMYEL BRET biosensor, Net BRET (D2LR [3]; time 2.95 mins): 0.1113 and 0.1351 and 0.0964 | Inhibition of cAMP production measured using a CAMYEL BRET biosensor, Net BRET (D2LR [3]; time 3.31667 mins): 0.1109 and 0.1416 and 0.1166 | Inhibition of cAMP production measured using a CAMYEL BRET biosensor, Net BRET (D2LR [3]; time 3.68333 mins): 0.1141 and 0.143 and 0.1124 | Inhibition of cAMP production measured using a CAMYEL BRET biosensor, Net BRET (D2LR [3]; time 4.05 mins): 0.1231 and 0.1563 and 0.1162 | Inhibition of cAMP production measured using a CAMYEL BRET biosensor, Net BRET (D2LR [3]; time 4.41667 mins): 0.1255 and 0.1611 and 0.116 | Inhibition of cAMP production measured using a CAMYEL BRET biosensor, Net BRET (D2LR [3]; time 4.78333 mins): 0.1306 and 0.1617 and 0.1229 | Inhibition of cAMP production measured using a CAMYEL BRET biosensor, Net BRET (D2LR [3]; time 5.15 mins): 0.1492 and 0.1604 and 0.1179 | Inhibition of cAMP production measured using a CAMYEL BRET biosensor, Net BRET (D2LR [3]; time 5.51667 mins): 0.135 and 0.1611 and 0.1193 | Inhibition of cAMP production measured using a CAMYEL BRET biosensor, Net BRET (D2LR [3]; time 5.88333 mins): 0.1401 and 0.1595 and 0.123 | Inhibition of cAMP production measured using a CAMYEL BRET biosensor, Net BRET (D2LR [3]; time 6.25 mins): 0.1298 and 0.1539 and 0.1222 | Inhibition of cAMP production measured using a CAMYEL BRET biosensor, Net BRET (D2LR [3]; time 6.61667 mins): 0.1365 and 0.1594 and 0.1215 | Inhibition of cAMP production measured using a CAMYEL BRET biosensor, Net BRET (D2LR [3]; time 6.98333 mins): 0.1365 and 0.1586 and 0.1225 | Inhibition of cAMP production measured using a CAMYEL BRET biosensor, Net BRET (D2LR [3]; time 7.35 mins): 0.1382 and 0.1575 and 0.1195 | Inhibition of cAMP production measured using a CAMYEL BRET biosensor, Net BRET (D2LR [3]; time 7.71667 mins): 0.1358 and 0.1585 and 0.1189 | Inhibition of cAMP production measured using a CAMYEL BRET biosensor, Net BRET (D2LR [3]; time 8.08333 mins): 0.1415 and 0.1636 and 0.1191 | Inhibition of cAMP production measured using a CAMYEL BRET biosensor, Net BRET (D2LR [3]; time 8.45 mins): 0.1387 and 0.16 and 0.1143 | Inhibition of cAMP production measured using a CAMYEL BRET biosensor, Net BRET (D2LR [3]; time 8.81667 mins): 0.1483 and 0.1622 and 0.1213 | Inhibition of cAMP production measured using a CAMYEL BRET biosensor, Net BRET (D2LR [3]; time 9.18333 mins): 0.1415 and 0.1645 and 0.1136 | Inhibition of cAMP production measured using a CAMYEL BRET biosensor, Net BRET (D2LR [3]; time 9.55 mins): 0.1361 and 0.1571 and 0.122 | Inhibition of cAMP production measured using a CAMYEL BRET biosensor, Net BRET (D2LR [3]; time 9.91667 mins): 0.1368 and 0.1537 and 0.1212 | Inhibition of cAMP production measured using a CAMYEL BRET biosensor, Net BRET (D2LR [3]; time 10.2833 mins): 0.1433 and 0.1558 and 0.1185 | Inhibition of cAMP production measured using a CAMYEL BRET biosensor, Net BRET (D2LR [3]; time 10.65 mins): 0.1418 and 0.1582 and 0.1222 | Inhibition of cAMP production measured using a CAMYEL BRET biosensor, Net BRET (D2LR [3]; time 11.0167 mins): 0.1356 and 0.1444 and 0.1266 | Inhibition of cAMP production measured using a CAMYEL BRET biosensor, Net BRET (D2LR [3]; time 11.3833 mins): 0.1394 and 0.145 and 0.1251 | Inhibition of cAMP production measured using a CAMYEL BRET biosensor, Net BRET (D2LR [3]; time 11.75 mins): 0.1471 and 0.1529 and 0.1151 | Inhibition of cAMP production measured using a CAMYEL BRET biosensor, Net BRET (D2LR [3]; time 12.1167 mins): 0.148 and 0.1471 and 0.1222 | Inhibition of cAMP production measured using a CAMYEL BRET biosensor, Net BRET (D2LR [3]; time 12.4833 mins): 0.1456 and 0.1415 and 0.132 | Inhibition of cAMP production measured using a CAMYEL BRET biosensor, Net BRET (D2LR [3]; time 12.85 mins): 0.1323 and 0.1432 and 0.12 | Inhibition of cAMP production measured using a CAMYEL BRET biosensor, Net BRET (D2LR [3]; time 13.2167 mins): 0.14 and 0.1381 and 0.1276 | Inhibition of cAMP production measured using a CAMYEL BRET biosensor, Net BRET (D2LR [3]; time 13.5833 mins): 0.1427 and 0.1424 and 0.1286 | Inhibition of cAMP production measured using a CAMYEL BRET biosensor, Net BRET (D2LR [3]; time 13.95 mins): 0.1347 and 0.1377 and 0.1287 | Inhibition of cAMP production measured using a CAMYEL BRET biosensor, Net BRET (D2LR [3]; time 14.3167 mins): 0.1428
